Where “and” joins values, the source holds several entries; their conditions need not be identical. Equal values may be shown once.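 In this assay, cells in 96-well plates receive the compound at five concentrations for 48 hours. Endpoints are linearly interpolated between the surrounding concentrations. Abbreviation: GI50, concentration required for 50% inhibition of growth. The concentration for full growth arrest is given as TGI.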
What was measured:
Test in all cases: inhibition of tumour cell growth, NCI panel, 48 h
OVCAR-5 ovarian = system: OVCAR-5 ovarian
ACHN renal = system: ACHN renal
UO-31 renal = system: UO-31 renal
SR leukemia = system: SR leukemia
SF-295 CNS = system: SF-295 CNS
RPMI-8226 leukemia = system: RPMI-8226 leukemia
MOLT-4 leukemia = system: MOLT-4 leukemia
HCT-15 colon = system: HCT-15 colon
SK-MEL-2 melanoma = system: SK-MEL-2 melanoma
CAKI-1 renal = system: CAKI-1 renal

Compound	TGI (OVCAR-5 ovarian) [µM]	TGI (ACHN renal) [µM]	TGI (UO-31 renal) [µM]	TGI (SR leukemia) [µM]	TGI (SF-295 CNS) [µM]	TGI (RPMI-8226 leukemia) [µM]	TGI (MOLT-4 leukemia) [µM]	TGI (HCT-15 colon) [µM]	TGI (SK-MEL-2 melanoma) [µM]	TGI (CAKI-1 renal)	GI50 (OVCAR-5 ovarian)	GI50 (HCT-15 colon)	GI50 (SK-MEL-2 melanoma) [µM]	GI50 (ACHN renal) [µM]	GI50 (UO-31 renal)	GI50 (SR leukemia)	GI50 (SF-295 CNS)	GI50 (RPMI-8226 leukemia)	GI50 (MOLT-4 leukemia)	GI50 (CAKI-1 renal)
O=c1cc(-c2ccccn2)[nH]c2cccc(F)c12	> 100	> 100	> 100	> 100	> 100	> 100	> 100	–	–	–	–	–	–	–	–	–	–	–	–	–
N#C/C(=C1\SCC(=O)N1c1ccccc1)c1nc2ccccc2[nH]1	> 100	> 100	> 100	–	> 100	–	> 100	> 100	> 100	> 100 µM	–	–	–	–	–	–	–	–	–	–
C=C1C(=O)O[C@H]2[C@H]1CC/C(COC(=O)CCCCCC(=O)OC/C1=C/CC[C@@]3(C)O[C@H]3[C@H]3OC(=O)C(=C)[C@@H]3CC1)=C\CC[C@@]1(C)O[C@@H]21	4.17	3.1	2.86	5.58	16.5	5.51	4.1	3.81	21.2	–	1.97 µM	1.68 µM	5.17	1.4	1.25 µM	0.336 µM	4.09 µM	1.69 µM	0.633 µM	–
N#Cc1nc(-c2ccc(F)cc2)oc1S(=O)(=O)N1CCCCC1	3.32	3.15	2.93	–	27.4	–	8.21	3.37	4.92	3.03 µM	1.71 µM	1.59 µM	2.03	1.76	1.58 µM	–	14.1 µM	–	2.22 µM	1.66 µM
O=C(O)C[C@H](O)C[C@H](O)/C=C/c1c(C2CC2)nc2ccccc2c1-c1ccc(F)cc1	> 100	–	> 100	> 100	> 100	> 100	> 100	> 100	> 100	12.5 µM and 5.31 µM	52.6 µM and 7.32 µM	6.16 µM and 0.616 µM	4.06	–	16 µM and 3.48 µM	2.59 µM and 0.615 µM	2.1 µM and 0.526 µM	25 µM and 10.4 µM	> 100 µM and 54.5 µM	2.66 µM and 1.25 µM
Cc1ccc(/C=C(\C#N)c2cc3ccccc3n2C)cc1	> 100	> 100	> 100	> 100	1.46	> 100	> 100	> 100	–	> 100 µM	0.632 µM	0.303 µM	–	0.783	0.853 µM	0.264 µM	0.285 µM	0.38 µM	0.467 µM	0.406 µM
ClC(Cl)=C(Cl)C1(Cl)CC1COCc1ccccc1 (configuration not stated)	> 100	> 100	74.1	–	96.2	44.2	55.1	> 100	36.7	> 100 µM	–	–	–	–	–	–	–	–	–	–
CCO/C=C1\N=C(c2ccc(Cl)c(Cl)c2)OC1=O	> 100	> 100	> 100	–	> 100	> 100	> 100	> 100	> 100	> 100 µM	–	–	–	–	–	–	–	–	–	–
CNC(=O)NCC1OC(n2cnc3c(NC(=O)Nc4ccccc4)ncnc32)C(O[Si](C)(C)C(C)(C)C)C1O[Si](C)(C)C(C)(C)C (configuration not stated)	25.2	> 100	9.56	–	31.8	> 100	–	> 100	5.54	7.93 µM	5.24 µM	3.62 µM	2.45	3.83	2.5 µM	–	3.84 µM	3.27 µM	–	2.7 µM
OCCCCC#Cc1ccccc1C#Cc1ccc(O)cc1	35.2	31.2	26.7	–	32	48.9	38.9	28	43	30.3 µM	16.5 µM	14.1 µM	20.8	16.6	13.2 µM	–	16.2 µM	19.1 µM	9.96 µM	15.7 µM
O=S(=O)(NC1CCCCC1)c1ccc2c(c1)OCCOCCOCCOCCO2	–	> 100	> 100	> 100	> 100	> 100	> 100	> 100	–	> 100 µM	–	–	–	–	–	–	–	–	–	–
NC(=N\N=C/c1ccc(O)cc1)/C(N)=N\N=C/c1ccc(O)cc1	> 100	> 100	> 100	–	> 100	> 100	> 100	> 100	> 100	> 100 µM	> 100 µM	–	> 79	3.85	1.21 µM	–	3.3 µM	> 24.8 µM	0.623 µM	2.06 µM
COc1ccc2c(c1)/C(=C\c1ccncc1)C(=O)N2	49.2	15.9	19.3	–	72.8	77.1	–	13.1	23.6	15.9 µM	23 µM	2.97 µM	6.12	4.41	6.73 µM	–	15.7 µM	10.2 µM	–	3.64 µM
Cc1cc2c(c(C(N)=O)c1C)-c1cccc(F)c1C2=O	> 100	> 100	> 100	–	> 100	> 100	> 100	> 100	> 100	–	–	–	–	–	–	–	–	–	–	–
CO/N=C(\COc1ccc2c(=O)c3ccccc3oc2c1)c1ccccc1	> 100	52.7	63	–	78.1	> 100	> 100	> 100	–	4.89 µM	38.4 µM	51.9 µM	–	24	24.2 µM	–	28.7 µM	> 100 µM	> 100 µM	1.19 µM
C/C(CC(=O)Nc1cccc(Cl)c1C)=N\NC(N)=S	> 100	–	> 100	–	> 100	> 100	> 100	–	> 100	–	–	–	–	–	–	–	–	–	–	–
COc1ccc(-c2c(C)c(C(=O)O)nc(-c3ccc4c(O)c(OC)c5c(c4n3)=NC(C)(C)N=5)c2N)c(O)c1OC	> 100	27.7	27.5	1.94	38.6	86.6	29.7	> 100	41.4	–	–	–	–	–	–	–	–	–	–	–

Source: PubChem BioAssay (NCI)
